We go through 1 substance from patent US20020193564A1, “Oligomeric chaperone proteins” (priority 1999, published 2002).

In one assay the test system is E. coli SV6 groEL673. Description: In vivo complementation of ts groEL673 at 43° C. It is filed as cell-based. The following applies: plasmids pJC, relative to growth at 30° C. The method, then: (§1) In vivo Complementation Experiments.
(§2) Complementation experiments were performed by transforming electro-competent SV2 or SV6 cells with the pJC series of expression vectors and plating an aliquot of the transformation reactions directly at 43° C. The percentage of viable cells relative to the growth at 30° C. was determined. A representative number of clones which grew at 43° C. were incubated in absence of any selective markers at permissive temperature. After prolonged growth the loss of the pJC plasmids and the ts phenotype were verified. Each experiment was performed in duplicate. Plasmids carrying no groE genes or encoding the GroE proteins were used as negative or positive controls, respectively.

Another assay has as its system bacteriophage λ. Description: Growth of bacteriophage λ in transformed groEL strains. It is filed as cell-based, bacteriophage λ (b2cI) in E. coli. From the text: (§3) The E. Coli strains used in this study were: C41(DE3), a mutant of BL21(DE3) capable of expressing toxic genes (Miroux, B. & Walker, J. E. (1996) J. Mol. Biol. 260, 289-298); SV2 (B178groEL44), SV3 (B178groEL59) and SV6 (B178groEL673): isogenic strains carrying temperature-sensitive alleles of groEL; SV1(=B178) (Georgopoulos, C., Hendrix, R. W., Casjens, S. R. & Kaiser, A. D. (1973) J. Mol. Biol. 76, 45-60), A190 (ΔgroEL::kan^R) [pBAD-EL] (Ivic, A., Olden, D., Wallington, E. J. & Lund, P. A. (1997) Gene 194, 1-8), and TG1 (Gibson, T. J. (1984) Ph.D. thesis, University of Cambridge, U.K). Bacteriophage λb2cI (Zeilstra-Ryalls, J., Fayet, O., Baird, L. & Georgopoulos, C. (1993) J. Bacteriol. 175, 1134-1143) was used according to standard methods (Arber, W., Enquist, L., Hohn, B., Murray, N. E. & Murray, K. (1983) in Lambda II., ed. R. W. Hendrix, J. W. r., F. W. Stahl and R. A. Weisberg (Cold Spring Harbor Laboratory, Cold Spring Harbor, N.Y.), pp. 433-466); plaque formation was assayed at 30° C. T4D0, a derivative of bacteriophage T4 (Zeilstra-Ryalls, J., Fayet, O., Baird, L. & Georgopoulos, C. (1993) J. Bacteriol. 175, 1134-1143), was used according to standard methods (Karam, J. D. (1994) Molecular biology of bacteriophage T4. (American Society for Microbiology, Washington, D.C.)); plaque formation was assayed at 37° C.

A further assay concerns bacteriophage T4. In words: Growth of bacteriophage T4 in transformed groEL strains. Also on record: key to Growth of bacteriophage T4, SV1 (groEL^+) / Growth of bacteriophage T4, SV2 groEL44 / Growth of bacteriophage T4, SV3 GroEL59 / Growth of bacteriophage T4, SV6 groEL673: +++: normal plaque-forming ability relative to wild-type groEL^+ strain, in terms of both number and size; ++: 5-fold fewer plaques relative to wild-type groEL^+ strain, or both; 10-fold fewer plaques, or plaque size reduced relative to wild-type groEL^+ strain, or both; +/−: 10^2-fold fewer plaques and plaque size reduced relative to wild-type groEL^+ strain; no visible plaques (<10^−4). It is filed as cell-based, bacteriophage T4 (T4D0) in E. coli. The following applies: 37° C.
Source text: as §3

For another assay, the system named is E. coli SV2 groEL44. Description: In vivo complementation of ts groEL44 at 43° C. It is filed as cell-based. The following applies: plasmids pJC, relative to growth at 30° C. The method, then: as §1, §2
The test system of assay [1] is mutant Huntingdon exon 1-expressing PC12 and SH-SY5Y cells. In words: Inclusion formation and cell death, mutant Huntingdon exon 1. It is filed as cell-based. To be noted: overexpression. From the text: These phenomena have been studied by transiently transfecting part of Huntingdon exon 1 in COS-7, PC12, and SH-SY5Y cells. Inclusion formation was not seen with constructs expressing 23 glutamines but was repeat length and time dependent for mutant constructs with 43-74 repeats. HSP70, HSP40, the 20S proteasome and ubiquitin colocalized with inclusions. […] Thus, inclusion formation may be enhanced in polyglutamine diseases, if the pathological process results in proteasome inhibition or a heat-shock response. […] To our knowledge, this is the first report of an HSP increasing aggregation of an abnormally folded protein in mammalian cells and expands the current understanding of the roles of HDJ-2yHSDJ in protein folding (See Wyttenbach, A. et al. (2000) Proc. Natl. Acad. Sci. USA 97, 2899-2903).
We have tested MC72 in the same system.

Assay [2] deals with Lorist6 (bacteriophage λ origin vector). Description: Effect of over-expression on Lorist6 replication. It is filed as cell-based, E. coli. To be noted: over-expression from pJC. The method, then:
Effect on Lorist6 Replication of Over-Expressing of MC7.
The effect of over-expressing Gp31 proteins from pJC vector series on the replication of the bacteriophage λ origin vector, Lorist6 (Gibson, T. J., Rosenthal, A. & Waterston, R. H. (1987) Gene 53, 283-286) in TG1 (Gibson, T. J. (1984) Ph.D. thesis, University of Cambridge, U.K) or SV1 (Georgopoulos, C., Hendrix, R. W., Casjens, S. R. & Kaiser, A. D. (1973) J. Mol. Biol. 76, 45-60) cells was determined essentially as described (Chatellier, J., Hill, F., Lund, P. & Fersht, A. R. (1998) Proc. Natl. Acad. Sci. U.S.A. 95, 9861-9866).

As for “GroEL(1-548): key molecular chaperone in Escherichia coli, 14 subunits of 57.5 kD in two seven membered rings”, the “Relative colony forming ability, SV6 groEL673” value in the assay with E. coli SV6 groEL673 was 1. Also, the “Growth of bacteriophage λ, SV1 (groEL^+)” value with bacteriophage λ (30° C., SV1) is “− (no visible plaques (<10^−4))”. Further, the “Growth of bacteriophage λ, SV2 groEL44” value in the assay with bacteriophage λ (30° C., SV2) is reported as “+ (10-fold fewer plaques, or plaque size reduced relative to wild-type groEL^+ strain, or both)”. Also, in the assay with bacteriophage λ (30° C., SV3), the “Growth of bacteriophage λ, SV3 GroEL59” value is listed as “++ (5-fold fewer plaques relative to wild-type groEL^+ strain, or both)”. The “Growth of bacteriophage λ, SV6 groEL673” value in the assay with bacteriophage λ (30° C., SV6) is “+/− (10^2-fold fewer plaques and plaque size reduced relative to wild-type groEL^+ strain)”. Moreover, the “Complementation of groEL mutant strains for bacteriophage λ growth” value in the assay on bacteriophage λ (30° C., groEL mutant strains) was “weak complementation”. Also, the “Effect of over-expression on λ growth / plaque counts” value in the assay with bacteriophage λ (SV1 (groE^+)) is given as “suffices to inhibit λ growth”. Further, the “Growth of bacteriophage T4, SV1 (groEL^+)” value in the assay on bacteriophage T4 (SV1) is recorded as “+++”. In addition, in the assay with bacteriophage T4 (SV2), the “Growth of bacteriophage T4, SV2 groEL44” value was “+++”. Besides, the “Growth of bacteriophage T4, SV3 GroEL59” value in the assay on bacteriophage T4 (SV3) was “+++”. In the assay on bacteriophage T4 (SV6), the “Growth of bacteriophage T4, SV6 groEL673” value is “+++”. Further, the “Relative colony forming ability, SV2 groEL44” value in the assay on E. coli SV2 groEL44 was 1. In assay [1], the cell death result is reported as “no effect” and the inclusion formation result is reported as “no effect”. In assay [2], the “replication of the Lorist6 plasmid” value is “inhibit the replication”.
